{"source": "patent US8178087B2", "about": "“Process of production of bacteriophage compositions and methods in phage therapy field” (priority 2006, dated 2012)", "key": {"[1]": {"tested_on": "Escherichia. coli bacterial strain AS19", "test": "T4 plaque size with CTX disk on bacterial strain AS19", "type": "cell-based", "parameters": "key to the marks not given beside the values", "settings": "bacterial strain AS19, bacteriophage T4, CTX test disk"}, "AS19 bacterial strain [2]": {"tested_on": "AS19 bacterial strain", "test": "morphology of T4 infected AS19 bacteria with or without CTX by optical microscopy", "type": "cell-based, E. coli", "settings": "CTX 0.003 μg/ml, several hours after infection, FIG. 4", "from_the_text": "The morphology of the bacteria in culture has been observed by optical microscopy at different times after infection."}, "[3]": {"tested_on": "Escherichia. coli bacterial strain S/6", "test": "T4 plaque size with CTX disk on bacterial strain S/6", "parameters": "key to the marks not given beside the values", "settings": "bacterial strain S/6, bacteriophage T4, CTX test disk"}, "[4]": {"tested_on": "Escherichia. coli bacterial strain MC1061", "test": "T4 plaque size with CTX disk on bacterial strain MC1061", "settings": "bacterial strain MC1061, bacteriophage T4, CTX test disk"}, "AS19 bacterial strain [5]": {"tested_on": "AS19 bacterial strain", "test": "growth of AS19 bacterial strain in LB liquid medium with low dose CTX (OD600, CFU/ml)", "type": "cell-based, E. coli", "settings": "CTX 0.003 μg/ml", "experimental": "Growth was measured either by OD600 (A) or CFU/ml (B). The times (T) is indicated in minutes after addition of CTX to the growth medium.\nTo examine the effect of low doses of the β-lactam antibiotic CTX on a culture of the AS19 bacterial strain, this bacterial strain was grown in LB liquid medium with CTX at a dosage level (0.003 μg/ml) that produces a substantial effect synergistic when infected with T4 phage."}, "[6]": {"tested_on": "Escherichia. coli bacterial strain BE", "test": "T4 plaque size with CTX disk on bacterial strain BE", "type": "cell-based", "parameters": "key to the marks not given beside the values", "settings": "bacteriophage T4, CTX test disk"}, "[7]": {"tested_on": "Escherichia. coli bacterial strain C600", "test": "T4 plaque size with CTX disk on bacterial strain C600", "settings": "bacterial strain C600, bacteriophage T4, CTX test disk"}, "[8]": {"tested_on": "Escherichia. coli bacterial strain P400", "test": "T4 plaque size with CTX disk on bacterial strain P400", "type": "cell-based", "settings": "bacterial strain P400, bacteriophage T4, CTX test disk"}, "AS19 bacterial strain [9]": {"tested_on": "AS19 bacterial strain", "test": "different antibiotic test disks, T4-type phages on AS19 bacterial strain", "type": "cell-based, E. coli", "settings": "T4-like phages"}, "non-infected E. coli MFP": {"tested_on": "non-infected E. coli MFP", "test": "antibiotic sensitivity test disks on non-infected MFP strain", "type": "cell-based, Escherichia coli", "settings": "FIG. 1"}, "φmF-infected E. coli MFP": {"tested_on": "φmF-infected E. coli MFP", "test": "φmF plaque size around antibiotic disks on MFP strain", "type": "cell-based, Escherichia coli", "from_the_text": "A culture of non-infected MFP strain has been grown overnight in LB liquid medium, and then a dilution of the culture either alone or mixed with φmF phage have been inoculated on a series of nutrient Petri plate where different antibiotic sensitivity test disks were placed on the surface.\nThe entire surface of the Petri plate was inoculated with a mixture of both the MFP bacterial host and with the phage φmF that could infect it (see FIG. 1, φmF-infected E. coli MFP)."}, "[10]": {"tested_on": "uropathogenic Escherichia coli strain", "test": "antibiotic sensitivity test disks on Petri plate inoculated with child's urine (phage plaques around disks)", "type": "cell-based", "settings": "plate inoculated with dilution of child's urine; strain infected by bacteriophages"}}, "data": [{"compound": "CO/N=C(\\C(=O)N[C@@H]1C(=O)N2C(C(=O)O)=C(COC(C)=O)CS[C@H]12)c1csc(N)n1", "note": "[CTX, Cefotaxime]", "values": [{"measurement": "synergy (size of phage plaques) with CTX (Cefotaxime)", "setting": "[1]", "value": "+++"}, {"measurement": "cell size of the T4 infected bacteria", "setting": "AS19 bacterial strain [2]", "value": "increases in volume considerably producing long fat filaments"}, {"measurement": "synergy (size of phage plaques) with CTX (Cefotaxime)", "setting": "[3]", "value": "++"}, {"measurement": "synergy (size of phage plaques) with CTX (Cefotaxime)", "setting": "[4]", "value": "+"}, {"measurement": "cell viability as assayed by colony forming units", "setting": "AS19 bacterial strain [5]; LB liquid medium", "value": "little effected"}, {"measurement": "cell division", "setting": "AS19 bacterial strain [5]; LB liquid medium, FIGS. 3A and 3B", "value": "inhibited"}, {"measurement": "optical density of the culture treated with the drug", "setting": "AS19 bacterial strain [5]; after the addition of the drug", "value": "continues to increase for at least two hours"}, {"measurement": "synergy (size of phage plaques) with CTX (Cefotaxime)", "setting": "[6]", "value": "+++"}, {"measurement": "synergy (size of phage plaques) with CTX (Cefotaxime)", "setting": "[7]", "value": "+"}, {"measurement": "synergy (size of phage plaques) with CTX (Cefotaxime)", "setting": "[8]", "value": "+"}]}, {"compound": "CCn1cc(C(=O)O)c(=O)c2ccc(C)nc21", "note": "[Nalidix Acid, Nalidixic acid]", "values": [{"measurement": "stimulation of T4 phage production (synergistic effect on phage T4 growth)", "setting": "AS19 bacterial strain [9]", "value": "causes a synergistic effect"}]}, {"compound": "Gentamicin", "values": [{"measurement": "stimulation of T4 phage production (synergistic effect on phage T4 growth)", "setting": "AS19 bacterial strain [9]", "value": "failed to stimulate T4 phage production"}]}, {"compound": "NCC[C@H](O)C(=O)N[C@@H]1C[C@H](N)[C@@H](O[C@H]2O[C@H](CN)[C@@H](O)[C@H](O)[C@H]2O)[C@H](O)[C@H]1O[C@H]1O[C@H](CO)[C@@H](O)[C@H](N)[C@H]1O", "note": "[Amikacin]", "values": [{"measurement": "stimulation of T4 phage production (synergistic effect on phage T4 growth)", "setting": "AS19 bacterial strain [9]", "value": "failed to stimulate T4 phage production"}]}, {"compound": "C[C@@H]1O[C@@H]1P(=O)(O)O", "note": "[Fosfomycin]", "values": [{"measurement": "stimulation of T4 phage production (synergistic effect on phage T4 growth)", "setting": "AS19 bacterial strain [9]", "value": "failed to stimulate T4 phage production"}]}, {"compound": "CC1(C)S[C@@H]2[C@H](NC(=O)[C@H](N)c3ccc(O)cc3)C(=O)N2[C@H]1C(=O)O", "note": "[Amoxicillin]", "values": [{"measurement": "sensitivity or resistance of the MFP bacterial strain to antibiotic (zone of growth inhibition around disks)", "setting": "non-infected E. coli MFP", "value": "resistance"}]}, {"compound": "C[C@H]1[C@H](NC(=O)/C(=N\\OC(C)(C)C(=O)O)c2csc(N)n2)C(=O)N1S(=O)(=O)O", "note": "[ATM, aztreonam]", "values": [{"measurement": "stimulation of phage φMFP growth by antibiotic disks", "setting": "φmF-infected E. coli MFP; FIG. 1, disks marked with +", "value": "good stimulation"}, {"measurement": "size of φmF plaques in the zone of non lethal antibiotic concentration around disks", "setting": "φmF-infected E. coli MFP; MFP host mixed with phage φmF, FIG. 1", "value": "significantly larger size"}, {"measurement": "size of phage plaques in the zone of non lethal concentrations of antibiotic that encircled antibiotic disks", "setting": "[10]", "value": "much larger"}, {"measurement": "sensitivity or resistance of the MFP bacterial strain to antibiotic (zone of growth inhibition around disks)", "setting": "non-infected E. coli MFP", "value": "sensitivity"}]}, {"compound": "CO[C@H]1/C=C/O[C@@]2(C)Oc3c(C)c(O)c4c(O)c(c(/C=N/N5CCN(C)CC5)c(O)c4c3C2=O)NC(=O)/C(C)=C\\C=C\\[C@H](C)[C@H](O)[C@@H](C)[C@@H](O)[C@@H](C)[C@H](OC(C)=O)[C@@H]1C", "note": "[Rifampin]", "values": [{"measurement": "stimulation of T4 phage production (synergistic effect on phage T4 growth)", "setting": "AS19 bacterial strain [9]", "value": "failed to stimulate T4 phage production"}]}, {"compound": "O=C(N[C@H](CO)[C@H](O)c1ccc([N+](=O)[O-])cc1)C(Cl)Cl", "note": "[Choramphenicol]", "values": [{"measurement": "stimulation of T4 phage production (synergistic effect on phage T4 growth)", "setting": "AS19 bacterial strain [9]", "value": "failed to stimulate T4 phage production"}]}, {"compound": "COc1cc(Cc2cnc(N)nc2N)cc(OC)c1OC", "note": "[Trimethoprim]", "values": [{"measurement": "stimulation of T4 phage production (synergistic effect on phage T4 growth)", "setting": "AS19 bacterial strain [9]", "value": "failed to stimulate T4 phage production"}]}, {"compound": "Colistin", "values": [{"measurement": "stimulation of T4 phage production (synergistic effect on phage T4 growth)", "setting": "AS19 bacterial strain [9]", "value": "failed to stimulate T4 phage production"}]}]}
